# Assay: Scanning electron microscope inspection of encapsulated granules
# Assay type: physicochemical
# Settings: SEM
# Method: NaNO2 granules (food grade E250, BASF) approximately 0.2-1.0 mm and zein (USP30/NF25, Rebain International Ltd) were used as supplied. NaNO2 granules were dried in a commercial oven for 12 hours at 60° C. to remove any residual moisture. NaNO2 granules (500 g) were coated using a pan coating process; zein (10%) was dissolved in a mixture of water (10%) and ethanol (80%). For coatings containing plasticizer, zein (9.9%) was dissolved in a mixture of water (10%) and ethanol (80%) and either glycerol, PVP or PEG 400 were added at 0.1% to make a mixture containing zein and one of the potential plasticizers. To coat the NaNO2, 500 g of granules were placed in a spherical pan, the pan was rotated at 20 revolutions per minute, the liquid encapsulant solution was sprayed onto the granules at one litre per hour while the whole was warmed to 40° C. by warm predried air directed onto the granule bed to progressively evaporate the solvents. Once all coating material was applied the granules continued to be rotated to ensure drying.
# NaNO2 coated in each of the four different solutions outlined above as well as uncoated NaNO2 granules were assessed visually using a scanning electron microscope (SEM) (Philips XL30S FEG, Netherlands). Samples were sputter coated with gold for 2 min (Quorum Technologies Polaron SC 7640 sputter coater, England) and viewed at an accelerating voltage of 5 kV. […]
smiles,measurement,setting,value
"O=N[O-].[Na+] [Uncoated NaNO2 granules, sodium nitrite]",aggregation of granules,54x/55x and 250x magnification,strong tendency to aggregate
same,surface of granule / coat (cracks),1000x magnification,covered in surface fissures

# From patent publication US10624338B2, “Nitrite microencapsulation, and uses of microencapsulated nitrite in the manufacture of pest baits” (priority 2016, dated 2020)
